The source of these data is patent US5512564A, “Tricyclic thiazole and oxazole derivatives and pharmaceutical agents containing them” (priority 1991, dated 1996).

What is called pIC50 is the negative decadic logarithm of the IC50, by convention in mol/L. A low value points to a large IC50.

The target of one series is T1, purified RT from HIV-1 (Human immunodeficiency virus type 1 group M subtype B, UniProt P04585).
T1 construct: purified RT from HIV-1; made in house; host or cells: E. coli
Nature of the series: Inhibition of Reverse Transcriptase (3H-thymidine-5'-triphosphate incorporation, 18mer oligonucleotide primer). The series is classed as biochemical. The settings on record: concentration causing 50% inhibition of the RT activity; HIV-1 RT expressed in E. coli. Here is the method:
The screening test system comprises the purified RT from HIV-1 which was expressed by genetic engineering methods in E. coli as well as the components of the initiation complex and site complementary 18mer oligonucleotide as the primer. The ^3 H!-thymidine-5'-triphosphate incorporation was measured by counting in a β counter. The IC50 value is given in the following table for the investigated compounds. This value corresponds to that concentration of the test substance which causes a 50% inhibition of the RT activity.

The conditions of series [1]: treatment of AIDS; Hirsch, M. S. (1988); cited from earlier work.

pIC50: −log10 of the molar value.

Consider `O=C1c2cccnc2C2(c3ccccn3)SCCN12` (stereo not drawn) [Example 9, 3a-Pyridin-2-Yl-2,3a-Dihydro-1H-3-Thia-4,8a-Diaza-Cyclopenta a!Inden-8-One], for which the pIC50 on purified RT from HIV-1 was 4.64. On the same count and under the same terms, for `Cc1ccnc(C23SCCN2C(=O)c2cccnc23)c1` (stereo not drawn) [Example 8, 3a-(4-Methyl-Pyridin-2-Yl)-2,3a-Dihydro-1H-3-Thia-4,8a-Diaza-Cyclopenta a!I nden-8-One] the value was 5.34. Same read-out and setting: for `O=C1c2cccnc2C2(c3ccccc3)SCCN12` (stereo not drawn) [Example 2, 3a-Phenyl-2,3a-Dihydro-1H-3-Thia-4,8a-Diaza-Cyclopenta a!Inden-8-One] the value was 5.48.

Regarding `Cc1cc(C)cc(C23SCCN2C(=O)c2nccnc23)c1` (stereo not drawn) [Example 5, 3a-(3,5-Dimethyl-Phenyl)-2,3a-Dihydro-1H-3-Thia-4,7,8a-Triaza-Cyclopenta a! Inden-8-One], the negative-log IC50 (pIC50) against purified RT from HIV-1 was 4.40. Regarding `Cc1cn([C@H]2C[C@H](N=[N+]=[N-])[C@@H](CO)O2)c(=O)[nH]c1=O` [AZT, 3'-azido-3'-deoxythymidine], the “therapeutic range (in words)” value in series [1] is reported as “very narrow therapeutic range”. In turn, `Cc1cc(C)nc(C23SCCN2C(=O)c2cccnc23)c1` (stereo not drawn) [Example 11, 3a-(4,6-Dimethyl-Pyridin-2-Yl)2,3a-Dihydro-1H-3-Thia-4,8a-Diaza-Cyclopenta a!Inden-8-One] showed a negative logarithm of the IC50 (pIC50) on purified RT from HIV-1 of 5.41. Still for that read-out and setting: with `O=C1c2ccncc2C2(c3ccccc3)SCCN12` (stereo not drawn) [Example 7, 3a-Phenyl-2,3a-Dihydro-1H-3-Thia-5,8a-Diaza-Cyclopenta a!Inden-8-One] the figure was 4.77; with `Cc1cccc(C23SCCN2C(=O)c2cccnc23)n1` (stereo not drawn) [Example 10, 3a-(6-Methyl-Pyridin-2-Yl)-2,3a-Dihydro-1H-3-Thia-4,8a-Diaza-Cyclopenta a!I nden-8-One], 5.18.

Take `Cc1cccc(C23SCCN2C(=O)c2cccnc23)c1` (stereo not drawn) [Example 13, 3a-m-Tolyl-2,3a-Dihydro-1H-3-Thia-4,8a-Diaza-Cyclopenta a!Inden-8-One]: on purified RT from HIV-1, the pIC50 is 5.40.
